Earlier results, collected in article PMC4781755 (Biochemistry, 2015).

Experiments:
hNaDC1 = details: read-out: Km for succinate, hNaDC1
hNaDC3 = details: read-out: Km for succinate, hNaDC3

Row | SMILES | inhibition of vcINDY (vcINDY) | Km (hNaDC1) | Km (hNaDC3)
1 | O=C(O)CC(O)(CC(=O)O)C(=O)O [citrate] | weak inhibitor | – | –
2 | O=C(O)CCC(=O)O [succinate] | – | 500 µM | ~20 µM
